Data published in patent publication US6265423A, “Aromatic polycyclic retinoid-type derivatives, method for preparing same, and use thereof for making pharmaceutical and cosmetic compositions” (priority 1996, dated 2001).
“Also recorded” adds a separate entry of the source.

Tests used:
RARβ-ERcassette = test: Transactivation, chimerical receptor RARβ-ERcassette (HeLa); type: cell-based; details: TTNPB 10^-8 M = 100
Source text: (§1) The HeLa cells are co-transfected by a plasmid which codes for a retinoic receptor in which the C domain of bonding to the DNA is substituted by that of the receptor to RE oestrogens, and a plasmid which places the expression of the luciferase under the control of an ERE (Element of Response to Oestrogens). The expressed chimerical receptors are designated as RARα-ERcassette, RARβ-ERcassette, RARγ-ERcassette and RXRα-ERcassette. The A, B, D, E and F regions of the natural receptor are preserved as well as the transcriptional co-operation between the activation domains AF-1 and AF-2. These transitory transfection experiments follow the method of co-precipitation to calcium phosphate. The HeLa cells are co-transfected by […] of plasmid coding for the chimerical receptor, […] of reporter plasmid and […] of expression vector CMV-β-galactosidase used as an internal control of transfection. 24 hours after the transfection, the cells are incubated for 16 hours with the different effectors.
(§2) In this type of chimerical receptor, the C domain of bonding to the DNA of RAR is substituted by that of the receptor to the RE oestrogens. The protein obtained is close to the natural RAR receptor and preserves the transcriptional properties of the AF-1 and AF-2 domains. It modulates the transcription by means of an ERE. This RAR-ERcassette model allows one to observe a transcriptional response to a more physiological ligand.

Gal4-RARβ = test: Transactivation, chimerical receptor Gal4-RARβ (transitory transfection of HeLa); type: cell-based; details: 100% = TTNPB 10^-8 M
[1] = system: human mammary tumoral lineage T-47D; test: Clonogenic test (soft agar), growth of cellular colonies; type: cell-based; details: T-47D, soft agar
Source text: The human tumour stem cells are the clonogenic cells which are the origin of the neoplasic cells which constitute a given tumour. These tumour stem cells are responsible for the recidivism process observable after surgical resection of the primary tumours and are also responsible for the formation of metastases. […] At the level of a tumour or of a tumoral cellular lineage, these clonogenic stem cells distinguish themselves from other clonogenic cells of the tumour or of the neoplasic cellular lineage being considered, by the fact that they preserve their ability to proliferate in the absence of any solid support.
This technique is suitable for the culturing in vitro of most of the tumours and tumoral cellular lineages of various histological types. In the context of this test, the neoplastic cells are cultured on a semi-solid culture medium "soft agar" made up of a mixture of agar and agarose. On this selective support, only tumoral stem cells survive and proliferate. […] The morphological characteristics and the growth of the cellular colonies are also a function of the histological type of the tumours being considered.
These culture conditions are also called "anchorage-independent" conditions.
The base medium "MEM 25 MM HEPES" (Minimum Essential Medium, Life Technologies, Belgium) contains Eagle salts but no L-glutamine. This medium is well suited to the growth of a range of varied diploid cells or primary mammal cells. To this medium is then added:
The tumoral cells are maintained in culture in 25 cm^2 falcon dishes (Life Technologies, Belgium). They are then trypsinised and individualised. Their rate of viability is determined by coloration with trypan blue (Sigma, Belgium). It must be greater than 90%. In the case where this condition is kept to, a cellular suspension at the desired concentration is prepared in a solution of agar at 0. 3%. The cells are then seeded between two layers of agar (Sigma, Belgium) and in 35 mm Petri dishes (Life Technologies, Belgium). The base layer is made up of a 0.5% solution of agar and the top layer is made up of a 0.3% solution of agar. The cupules are then positioned and held in an incubator at 37° C. and 5% of CO2. […] After treatment, the cupules are kept in the incubator for 21 days. It is advisable to examine, during the course of the experiment, the appearance and the increase of the cellular colonies. If after 10 days, no colony appears or is developing, the experiment must be repeated. In the contrary case, on the 21st day, 100 μl of an MTT solution (3-(4,5-dimethylthiazol-2-yl)-2,5 diphenyl tetrazolium bromide; Sigma, Belgium) dissolved in the RPMI culture medium (Roswell park Memorial Institute, Life Technologies, Belgium), at the concentration of 1 mg/ml are deposited on the top layer of the group of cupules. The cells are kept in contact with this solution for a minimum of 3 hours at 37° C.
Using an inverted microscope at low magnification, the number of clones whose surface area is greater thar. 100 μm^2 is determined for the group of cupules representing all the different experimental conditions. Then, for each of these experimental conditions, the mean number of cellular colonies±the standard error on the mean (ESM) is calculated.
The mean number of cellular colonies determined for each experimental condition is expressed as a percentage in relation to the control condition made equal to 100%.

[2] = system: RAR-ERcassettes (RARα, RARβ, RARγ); test: Chimerical receptors RAR-ERcassettes, overall profile; type: cell-based
Source text: as §1, §2

[3] = system: AP-1, MTLN lineage (MCF-7); test: Anti-AP-1 effect, MTLN lineage activated by TPA; type: cell-based, human; details: TPA-activated MTLN cells
Experimental: (§3) Certain properties of the retinoids have been determined using more developed cellular models. These models consist of cellular lineages transfected in a stable fashion by recombinant plasmids which place the expression of the gene of the luciferase under the control of different nuclear response elements. […] The tests carried out in duplicate are described below for each of these models.
The anti-factor AP-1 transrepressor effect of retinoids is determined using the MTLN lineage, coming from MCF-7 cells transfected in a stable fashion by a vector p(TRE)3 -tk-Luc which places the expression of the gene of luciferase under the control of […]. TPA activates the AP-1 complex formed from proteins of the family of nuclear proto-oncogenes (c-Jun and c-Fos). […] The experiments are made with the MTLN cells activated by 10^-7 M TPA.
The effect of the compounds on the MTLN cells activated by 10^-7 M TPA is expressed as a percentage. […] The inhibitive properties of the products are calculated after deduction of the base activity of the cells. The percentages reported correspond to a range of inhibitions determined from several experiments.

[4] = system: A549 human pulmonary cancer cells; test: MTT test, proliferation of A549; type: cell-based; details: MTT test
[5] = system: RARE, endogenic RAR and RXR receptors, HRL+N lineage; test: HRL+N transactivation (RARE-luciferase, stably transfected HeLa); type: cell-based
Experimental: (§4) MCF-7 cells and HeLa are cultivated in DMFM with phenol red to which 5% foetal calf serum is added. The T47-D cells are cultivated in RPMI to which 10% foetal calf serum is added. The experimental tests are carried out in DMEM without phenol red to which foetal calf serum treated with dextran carbon is added at 3%. […] The experiments using the different retinoids are carried out sheltered from the light so as to avoid any isomerisation.
as §3
The cellular lineages HRLN and HRL+N allow one to study the activation of an RARE by endogenic receptors using ligands at physiological concentrations. These lineages derive from HeLa cells transfected in a stable fashion by a reporter gene which places the expression of the gene of the luciferase under the control of a nuclear response element RARE (RARE3 -tk-Luc). The HeLa cells express all the known receptors of the retinoic acid (RARα,β,γ and RXRα,β,γ) with a predominance of RARα and RXRα. The response element RARE used for the HRLN cells corresponds to the sequence of the natural gene of the RARβ receptor (GGTTCAnnnnnAGTTCA). The HRL+N cells comprise the sequence GAGTGAnnnnnCGGTGA.
The HRL+N lineage allows one to visualise a co-activation of the RAR and RXR receptors at the level of the RAR-RXR hetero-dimer.

T-47D cells = test: Effect on oestrogen-induced proliferation of T-47D cells; type: cell-based, human; details: estradiol 10^-9 M
Experimental: as §4
So as to test the anti-proliferation effect of the retinoids, growth experiments under oestrogenic conditions were carried out on cells MCF-7 and T-47D. These are the human oestrogen-dependent mammary cancer cells which express the receptor to RE oestrogens. The effect of the molecules is evaluated after 7 days of culture in oestrogenic conditions (estradiol 10^-9 M) by dosing the cellular DNA. The cells are distributed in 24 well plates at a density of 2×10^4 cells per well. The tests with the different retinoids are carried out in triplicate and the culture medium is changed after 4 days of growth.

MCF-7 cells = test: Effect on oestrogen-induced proliferation of MCF-7 cells; type: cell-based, human; details: estradiol 10^-9 M
Experimental: MCF-7 cells and HeLa are cultivated in DMFM with phenol red to which 5% foetal calf serum is added. […] The experimental tests are carried out in DMEM without phenol red to which foetal calf serum treated with dextran carbon is added at 3%. […] The experiments using the different retinoids are carried out sheltered from the light so as to avoid any isomerisation.

Gal4-RARγ = test: Transactivation, chimerical receptor Gal4-RARγ (transitory transfection of HeLa); type: cell-based; details: 100% = TTNPB 10^-8 M

## C=C(c1ccc(C(=O)O)cc1)c1cc2c(cc1C)C(C)(C)CCC2(C)C [LGD1069, reference compound]
RARβ-ERcassette; 10^-6 M
  RAR-ERcassette RARβ transactivation: 237%
RARβ-ERcassette; 10^-7 M
  RAR-ERcassette RARβ transactivation: 194%
Gal4-RARβ; 10^-7 M
  GAL4-RAR RARβ transactivation: 5%
Gal4-RARβ; 10^-8 M
  GAL4-RAR RARβ transactivation: 1%
[1]
  effect on growth of cellular colonies (in words): strongly and significantly inhibits the growth of cellular colonies of the T-47D lineage
[2]
  RAR-ERcassette profile (in words): transcriptional power appears higher notably through the RARβ-ERcassette; also recorded: permits a co-activation of RAR and RXR, bringing about an over-activation of the hetero-dimer in comparison with the specific RAR activation of TTNPB
[3]
  anti-AP-1 effect (in words): causes an inhibition of the AP-1 route; also recorded: the most effective compound tested in this model
[4]
  effect on cellular increase, A549 (in words): induces a stimulation of the proliferation of the A549 cells at 10^-6 M and 10^-8 M
[5]
  HRL+N transactivation (in words): induce a stronger transactivation with the HRL+N cells; also recorded: behaves as a panagonistic molecule
T-47D cells
  effect on oestrogen-induced growth, T-47D (in words): exerts no effect whatsoever on the growth of MCF-7 and T-47D cells in oestrogenic conditions
MCF-7 cells
  effect on oestrogen-induced growth, MCF-7 (in words): exerts no effect whatsoever on the growth of MCF-7 and T-47D cells in oestrogenic conditions
Gal4-RARγ; 10^-6 M
  GAL4-RAR RARγ transactivation: 29%
Gal4-RARγ; 10^-7 M
  GAL4-RAR RARγ transactivation: 8%
Gal4-RARγ; 10^-8 M
  GAL4-RAR RARγ transactivation: 1%
